Each structure is given as a SMILES string.

For data set [1] the following is noted: murine models; ref Bennett et al., 2016; Tsika et al., 2021; cited from earlier work.
The test system of data set [2] is NIH-3T3 TrkB-expressing cell line. Description: CellTox Green cytotoxicity assay in NIH-3T3 cells stable transfected with TrkB under serum deprivation. The settings on record: compound 1 μM, 24 h, after 24 h serum starvation; BDNF 500 ng/mL as control. The data set is classed as cell-based. How it is done:
(§1) We tested compounds on three cellular systems, primary cortical astrocytes from 2-day-old mice (as a natively TrkB-expressing neuronal population), and NIH-3T3 fibroblasts stable transfected with TrkB and NIH-3T3 naïve cells. Cells were grown with high-glucose DMEM medium supplemented with 10% fetal bovine serum (FBS), 100 μg/mL streptomycin, and 100 units/mL penicillin at 37°C in a humidified 5% CO2 atmosphere. Phosphorylation results presented here are in primary astrocytes, and cell toxicity assay results are in NIH-3T3 stable transfected cells with TrkB.
NIH-3T3 stable transfected cells with TrkB were plated in 96-well plates at a density of 10,000 cells/well, before carrying out serum starvation for 24 h. Cells were then treated for 24 h with either BDNF at 500 ng/mL (control) or the compounds at 1 μM.
For the cell toxicity assay, we used CellTox™ Green Dye (2,000 × , Promega) for the visualization of dead cells and Hoechst 33,342 solution (10,000 × ) for total cells. A ZEISS Axio Vert.A1 microscope was used for image capture, and the ImageJ software (https://imagej.nih.gov/ij/) was used for analysis. The number of CellTox positive cells was normalized against the total number of cells observed in each image.
The NIH-3T3 TrkB cell line, which is stable and transfected to specifically express the TrkB receptor, was used for the screening of the new compounds for their ability to protect cells from serum deprivation-induced apoptosis through the activation of the TrkB receptor. Cell death was induced by serum deprivation for 24 h and then BDNF (500 ng/mL), the native neurotrophin ligand of the TrkB receptor, or compounds ENT-A007, ENT-A009, ENTA025, ENT-A026, ENT-A033, ENT-A034, ENT-A035, ENT-A036, ENT-A037, ENT-A046, ENT-A047, ENT-A055, and ENT-A056 (1 μM) were added to the media for 24 h.

For another data set, the target named is T1, TrkB (Mus musculus, UniProt P15209).
T1 construct: primary cortical astrocytes from 2-day-old mice (as a natively TrkB-expressing neuronal population); endogenous in cells; host or cells: primary cortical astrocytes from C57B/6 mouse pups (P2)
The data set is described as follows: TrkB phosphorylation assay in primary astrocytes (Western blot). The class given is cell-based. The settings on record: compound 1 μM, 20 min, after 6 h serum starvation, BDNF 500 ng/mL as control. The method, then:
as §1
Cells were plated in 12 well plates, at a density of 100,000 cells per well, with 6 h of serum deprivation carried out on the following day. To assess the effect of compounds on TrkB phosphorylation, 20-min treatments were applied, using either BDNF at 500 ng/mL (Peprotech 450-02) (positive control) or compounds at 1 μM.
Cell lysis for 10 min was carried out on ice using the Pierce IP Lysis Buffer by Thermo Scientific and a phospho-protease inhibitor cocktail by Millipore. After adding loading buffer (5 × Laemni), 25 μg from each protein sample were incubated for 5 min at 95°C and subjected to SDS-PAGE. Proteins were transferred to a nitrocellulose membrane at 350 mA for 2 h. Membrane blocking was performed using 5% bovine serum albumin (BSA) at room temperature for 1 h, before adding the primary antibodies to the blocking solution at 4°C overnight. HRP-conjugated secondary antibodies were used for the detection of chemiluminescence with ECL solution. Primary antibodies: Phospho-TrkB (Tyr816) Millipore # ABN1381, and Anti-TrkB Abcam #ab33655.
Mixed glial cultures were isolated from the cortex of C57B/6 pups at post-natal day 2 (P2). Cells were plated in a medium containing high-glucose DMEM, 200 U/mL penicillin, 200 μg/mL streptomycin, and 10% fetal bovine serum (FBS). When cells reach 100% confluency (7–8 days), the anti-mitotic agent Ara-C was added in the media at a final concentration of 10 μM, for 3 to 4 days to target the highly proliferative microglial cells. Ara-C was removed, and primary astrocytes (97% purity) were cultured at 5% CO2 and 37°C.
Cells were plated at 70–80% confluency. The next day, they were deprived of serum for 6 h and subsequently treated with 500 ng/mL BDNF or 1 μM of compounds for 20 min. Cells were then lysed in Pierce™ IP Lysis Buffer (87788, Thermo Fischer Scientific, Rockford, USA), containing proteases (539138, Calbiochem, Darmstadt, Germany), and phosphatase inhibitors (524629, Calbiochem, Darmstadt, Germany). Lysates were then suspended in an SDS loading buffer and subjected to Western blot against phosphorylated TrkB (1:1,000, ABN1381, Sigma-Aldrich, St. Louis, MO, USA) and total TrkB (1:1,000, 07-225-I, Sigma-Aldrich, St. Louis, MO, USA).

The target in the next data set is T2, CYP2C9 (Homo sapiens, UniProt P11712).
T2 construct: purchased Thermo Fisher Scientific; host or cells: Baculosomes
The data set is described as follows: Isozyme-specific CYP450 inhibition, CYP2C9. The data set is classed as in vitro ADME. The settings on record: 1 μM, 60 min, recombinant human CYP450 (Baculosomes). How it is done:
Human cytochrome P450 (CYP450) isoenzymes were expressed in Baculosomes®, purchased from Thermo Fisher Scientific (Waltham, MA, USA). All reagents were handled and prepared according to the manufacturer's protocol. Test compounds were assessed at 1 μM for their effects on CYP1A2, CYP2A6, CYP2C9, CYP2C19, CYP2D6, and CYP3A4. Approximately 1 μM was selected based on our ADMET standard operating procedures and protocols also published previously (Rogdakis et al., [2022]; Yilmaz et al., [2022]). CYP450-enzymatic activity was determined based on the kinetic model for each CYP450 isoform (Cohen et al., [2003]; Veith et al., [2009]). Reactions took place in triplicates at 20°C. For this, NADP^+ (10 mM in 100 mM potassium phosphate, pH 8.0) was converted into NADPH by the regeneration system present (glucose-6-phosphate at 333 mM and glucose-6-phosphate-dehydrogenase at 30 U/mL in 100 mM potassium phosphate, pH 8.0). Following the addition of the fluorescent substrate, signal monitoring over time took place immediately (<2 min) at suitable excitation and emission wavelengths (Agilent BioTek Lionheart FX). CYP450 inhibition (%) was determined based on the reaction rates (fluorescence intensity changes per unit time). In total, n = 60 measurements […] were acquired (t = 60 min).
% Inhibition=(1-X/A)×100%
X is the rate observed in the presence of the test compound.
A is the rate observed in the presence of the negative (solvent, DMSO) control.

The next data set deals with PC12 cells. The data set is described as follows: CellTox assay, survival of PC12 cells under serum deprivation. The class given is cell-based. The settings on record: compound 500 nM, 24 h, after 4 h serum starvation; NGF 100 ng/mL as control (Figure 9). The method, then:
(§2) PC12 cells were obtained from LGC Promochem and cultured under specified conditions. Cells were grown in DMEM medium (Thermo Fischer Scientific, cat# 10566016) containing 10% horse serum (Thermo Fischer Scientific, cat# 16050122), 5% fetal bovine serum (Thermo Fischer Scientific, cat# 10270106), 100 units/mL penicillin, and 0.1 mg/mL streptomycin (Thermo Fischer Scientific, cat# 15140122) at 5% CO2 and 37°C. Cells were used between passages 5 and 20.
CellTox assay (G8742, Promega, Leiden, Belgium) was used to assess the survival of PC12 cells under serum deprivation conditions. PC12 cells were plated in 96-well plates, starved from serum for 4 h, and subsequently treated with NGF (100 ng/mL) or compound (500 nM) for 24 h. CellTox assay reagents and Hoescht (1:10,000, H3570, Invitrogen, Massachusetts, USA) were then added to each well for 30 min, and then, cells were imaged with a Zeiss AXIO Vert A1 fluorescent microscope. CellTox positive cells were normalized to the total number of cells for each image.
Initially, we tested compounds ENT-A002, ENT-A007, ENT-A009, ENTA025, ENT-A026, ENT-A033, ENT-A034, ENT-A035, ENT-A036, ENT-A037, ENT-A046, ENT-A047, ENT-A055, and ENT-A056 for their ability to protect PC12 cells from serum deprivation-induced cell death as well as for their ability to activate TrkA downstream pro-survival signaling kinases Akt and Erk1/2 (Figures 9A–C). We opted to employ PC12 cells, which express receptors TrkA and p75 and have been routinely used for investigating NGF-TrkA signaling. PC12 cells were subjected to a period of nutrient deprivation (without fetal bovine serum and horse serum in their culture medium) for 4 h. Following this, NGF (100 ng/mL) or one of the compounds (500 nM or 1 μM) was administered and allowed to interact with the cells for 24 h. Following that, CellTox and Hoescht dyes were added and cells were imaged to assess cell death. Control cases involved cells cultured in full medium (serum), cells under starvation conditions (serum-free), and cells under starvation conditions treated with DMSO (SF+DMSO).

For another data set, the target named is T3, TrkA (Rattus norvegicus, UniProt P35739).
T3 construct: PC12 cells, which express receptors TrkA and p75; endogenous in cells; host or cells: PC12 cells
Description: TrkA phosphorylation in PC12 cells (immunoprecipitation / Western blot). Particulars: compound 500 nM, 30 min, NGF 100 ng/mL as control. The data set is classed as cell-based. The method, then:
as §2
For immunoprecipitation experiments, PC12 cells were used when they were at 70–80% confluent. Cells were starved from serum for 4 h and subsequently treated with 100 ng/mL NGF (Alomone Labs, cat# N-100) or 500 nM of each compound for 30 min. Cells were then lysed in Pierce™ IP Lysis Buffer (Thermo Fischer Scientific, cat# 87787) containing proteases (Sigma-Aldrich, cat# 539131) and phosphatase inhibitors (Millipore, cat# 524629). Lysates were then immunoprecipitated overnight at 4°C with TrkA antibody (1:100, Millipore, cat# 06-574) followed by 4 h incubation with protein G-plus agarose beads (Santa Cruz Biotechnology, cat# sc-2002). Beads were then collected, washed three times with lysis buffer, resuspended in SDS loading buffer, and subjected to Western blot against phosphorylated Tyrosine (1:1000, R&D systems, cat# BAM1676). […]
A general note: In western blotting, separated proteins are transferred to a membrane and probed.

A further data set relates to Erk1/2. Description: Erk1/2 phosphorylation in PC12 cells (Western blot). The data set is classed as cell-based. The settings on record: compound 500 nM, 30 min, NGF 100 ng/mL as control.
A short description of data set [3]: Metabolic stability in pooled human liver microsomes. The class given is in vitro ADME. The settings on record: 1 μM. How it is done: For metabolic stability assessment, pooled human liver microsomes were employed at 0.5 mg/mL. Incubation conditions were optimized to ensure linear metabolite formation with respect to protein concentration and reaction time. All test compounds were assessed at 1 μM based on our ADMET standard operating procedures and protocols, also published previously (1 μM was selected based on our ADMET standard operating procedures and protocols also published previously) (Rogdakis et al., [2022]; Yilmaz et al., [2022]). Approximately 1 mM of NADPH served as a cofactor. Reactions took place in triplicates at 37°C. Negative and positive controls (low vs. rapid clearance) were included for low vs. rapid clearance. After 60 min, reactions were terminated.
Parent structure loss is classified as very slow (<5%), slow (5–19%), moderate (20–50%), fast (50–80%), or very fast (>80%). Such categories have been defined according to set criteria, namely, high metabolism (t1/2 value of <30 min), moderate metabolism (30 min <t1/2 value of <60 min), and low metabolism (t1/2 value of >60 min) (EMA, [2012], [2013]; FDA, [2020]).
Background: Liver microsomes are vesicles of endoplasmic reticulum, rich in cytochrome P450 enzymes.

T2 sequence (P11712 whole entry): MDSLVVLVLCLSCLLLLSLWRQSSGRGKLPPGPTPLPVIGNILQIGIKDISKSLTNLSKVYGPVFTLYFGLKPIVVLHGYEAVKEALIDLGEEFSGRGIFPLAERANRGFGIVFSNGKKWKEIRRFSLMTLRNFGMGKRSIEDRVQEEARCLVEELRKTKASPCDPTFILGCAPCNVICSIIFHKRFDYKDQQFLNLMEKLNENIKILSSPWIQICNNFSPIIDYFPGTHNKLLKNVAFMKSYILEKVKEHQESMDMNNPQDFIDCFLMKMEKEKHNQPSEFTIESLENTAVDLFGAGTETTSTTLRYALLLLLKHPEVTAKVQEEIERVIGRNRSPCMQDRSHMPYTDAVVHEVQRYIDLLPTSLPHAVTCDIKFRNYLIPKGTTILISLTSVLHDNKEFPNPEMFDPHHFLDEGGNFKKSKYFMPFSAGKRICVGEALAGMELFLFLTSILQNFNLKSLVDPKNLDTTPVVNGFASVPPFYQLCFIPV
T1 sequence (P15209 32-821): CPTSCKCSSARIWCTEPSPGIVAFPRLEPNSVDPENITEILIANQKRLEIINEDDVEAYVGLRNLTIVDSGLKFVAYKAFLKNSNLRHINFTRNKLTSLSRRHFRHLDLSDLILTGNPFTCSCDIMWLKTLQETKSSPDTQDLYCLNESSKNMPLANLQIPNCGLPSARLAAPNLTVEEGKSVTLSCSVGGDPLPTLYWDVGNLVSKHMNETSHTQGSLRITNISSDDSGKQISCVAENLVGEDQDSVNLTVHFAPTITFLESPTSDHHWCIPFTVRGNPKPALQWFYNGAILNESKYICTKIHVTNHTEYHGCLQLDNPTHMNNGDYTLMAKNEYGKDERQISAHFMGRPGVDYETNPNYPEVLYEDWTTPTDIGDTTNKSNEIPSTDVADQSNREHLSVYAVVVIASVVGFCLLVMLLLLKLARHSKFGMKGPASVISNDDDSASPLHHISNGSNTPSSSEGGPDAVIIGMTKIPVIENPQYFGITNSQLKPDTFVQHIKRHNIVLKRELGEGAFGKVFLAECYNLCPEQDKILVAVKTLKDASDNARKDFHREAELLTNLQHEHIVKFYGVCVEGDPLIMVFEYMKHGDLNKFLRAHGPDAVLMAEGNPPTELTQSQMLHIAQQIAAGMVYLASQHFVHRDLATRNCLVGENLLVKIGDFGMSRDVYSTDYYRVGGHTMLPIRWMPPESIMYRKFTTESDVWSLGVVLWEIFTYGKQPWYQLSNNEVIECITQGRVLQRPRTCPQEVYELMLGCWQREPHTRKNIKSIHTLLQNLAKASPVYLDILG
T3 sequence (P35739 33-799): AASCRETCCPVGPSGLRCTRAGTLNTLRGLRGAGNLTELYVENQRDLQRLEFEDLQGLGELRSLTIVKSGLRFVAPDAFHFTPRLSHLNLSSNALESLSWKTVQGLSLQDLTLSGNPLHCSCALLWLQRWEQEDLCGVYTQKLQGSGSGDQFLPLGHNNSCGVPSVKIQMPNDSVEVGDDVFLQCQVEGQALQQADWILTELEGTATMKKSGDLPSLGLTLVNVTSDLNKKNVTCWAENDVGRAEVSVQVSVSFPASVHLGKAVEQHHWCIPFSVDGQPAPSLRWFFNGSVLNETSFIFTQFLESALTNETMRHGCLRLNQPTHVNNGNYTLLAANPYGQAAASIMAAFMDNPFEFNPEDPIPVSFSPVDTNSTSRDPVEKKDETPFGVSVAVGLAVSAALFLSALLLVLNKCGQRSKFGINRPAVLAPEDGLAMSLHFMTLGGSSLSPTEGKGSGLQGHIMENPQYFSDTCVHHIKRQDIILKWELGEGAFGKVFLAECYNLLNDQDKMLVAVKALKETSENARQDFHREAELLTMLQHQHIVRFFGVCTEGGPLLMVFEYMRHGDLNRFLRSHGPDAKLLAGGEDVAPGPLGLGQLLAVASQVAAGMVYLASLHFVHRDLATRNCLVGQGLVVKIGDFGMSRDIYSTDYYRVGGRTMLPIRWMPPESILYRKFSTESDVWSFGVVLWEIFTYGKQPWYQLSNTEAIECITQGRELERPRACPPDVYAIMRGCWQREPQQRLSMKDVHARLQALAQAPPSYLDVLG

On to `CC12CCC(O)CC1=CCC1C2CCC2(C)C1CCC21OC1CO` (stereo not shown) [BNN27], for which the “elimination constant (Kel)” value in data set [1] is 0.465 h⁻¹.
Turning to `CCOC(=O)C=CC1=CCC2(CCC3C4CC=C5CC(O)CCC5(C)C4CCC32C)OC1` [ENT-A007, Ethyl (E)-(3S,17R)-3-hydroxy-dihydrospiro[5-androstene-17,2′-pyran]-5′-yl-acrylate], the “protection of NIH-3T3-TrkB cells from serum deprivation-induced cell death (CellTox)” value (from here on “protection of NIH-3T3-TrkB cells”) in data set [2] is listed as “significantly reduce cell death levels compared to the serum-free control, comparable to the BDNF action”. For the same compound, the “phosphorylation levels of the TrkB receptor” value at TrkB is “only ENT-A009 and ENT-A055 successfully increased phosphorylation levels of the TrkB receptor”. Besides, the “inhibition for CYP2C9” value on CYP2C9 is given as “moderate-to-strong inhibition”.
Consider `CC12CCC(O)CC1=CCC1C2CCC2(C)C1CCC21CC=C(C=CC#N)CO1` [ENT-A009, (E)-(3S,17R)-3-hydroxy-3′,6′-dihydrospiro[5-androstene-17,2′-pyran]-5′-acrylonitrile], for which the “protection of NIH-3T3-TrkB cells” value in data set [2] is “significantly reduce cell death levels compared to the serum-free control, comparable to the BDNF action”. Further, the “phosphorylation levels of the TrkB receptor” value at TrkB is “successfully increased phosphorylation levels of the TrkB receptor compared to the untreated control”. Besides, on CYP2C9, the “inhibition for CYP2C9” value is reported as “moderate-to-strong inhibition”.
As to `CC12CCC(O)CC1=CCC1C2CCC2(C)C1CCC21CC=C(CCl)CO1` [ENT-A025, (3S,17R)-5′-(chloromethyl)-3′,6′-dihydrospiro[5-androstene-17,2′-pyran]-3-ol], the “protection of PC12 cells from serum deprivation-induced cell death (CellTox)” value in the data set with PC12 cells is “protect PC12 cells against serum deprivation-induced cell death”. Also, the TrkA phosphorylation entry at TrkA was “strongly induce TrkA and Erk1/2 phosphorylation, comparable to NGF action”. For the same compound, in the data set with Erk1/2, the Erk1/2 phosphorylation result is “strongly induce TrkA and Erk1/2 phosphorylation, comparable to NGF action”. The “protection of NIH-3T3-TrkB cells” value in data set [2] is listed as “cannot protect NIH3T3-TrkB cells from serum deprivation”. Moreover, the “residual of time zero” value in data set [3] (pooled human liver microsomes 0.5 mg/mL, t = 60 min, NADPH) is 92%. Further, in data set [3] (pooled human liver microsomes, 60 min), the “parent structure loss (depletion) class” value is “slow (slow (5–19%))”.

These data come from PMC10568017, “A quest for the stereo-electronic requirements for selective agonism for the neurotrophin receptors TrkA and TrkB in 17-spirocyclic-dehydroepiandrosterone derivatives” (Frontiers in Molecular Neuroscience, 2023).
